Reference: patent US20170114030A1, “COMPOSITION WITH HIGH CONTENT OF CYCLIC DIPEPTIDE” (SUNTORY HOLDINGS LIMITED, priority 2014, published 2017)

Test system: NCI-H716 cells
Test: In vitro GLP-1 secretion-accelerating action (active GLP-1 ELISA)
Type: cell-based
Details: for Significant difference (p < 0.05) vs control group, amount of active GLP-1 secreted: 1 hour, Student's t-test; for Amount of active GLP-1 secreted (relative value to control group as 100), Average value: after 1 hour, group with no cyclic dipeptide = 100
Method: In the Test Examples below, data were represented as average value±standard error. In Test Examples 1, 2, and 3, a Student's t-test was used for a statistical test, and in other Test Examples, one-way ANOVA was carried out for dispersion analysis followed by a multiple comparison test by using a Dunnet's test. […] All of these analyses were carried out by using an SPSS for Windows release 17.0 (manufactured by SPSS Inc.).
Among the cyclic dipeptides, 92 highly water-soluble cyclic dipeptides were used in the following experiment. In each well of a Poly-L-Lysine 96-well plate, NCI-H716 cells suspended in 100 μL of a DMEM (with 10% FBS, 2 mM glutamine, and 1% antibiotics added in advance) were seeded at 0.5×10^5 cells/well, and cultured in a CO2 incubator (manufactured by ESPEC CORP.) for 48 hours. After washing with PBS(+), 100 μL of a PBS(+) solution with each cyclic dipeptide at a final concentration of 10 mM and 10 μM of Sitagliptin phosphate added therein was added to the cells. After 1 hour, the resultant solution was recovered, and the amount of active GLP-1 in the solution was measured by using the ELISA kit. In the analysis, the amount of active GLP-1 for a group with no cyclic dipeptide added was defined as 100, and relative values thereto were used.
In each Table, cyclic dipeptides for which an in vitro active GLP-1 secretion-accelerating activity was found and was not found are listed.

[1] = Experiment 5, cyclic dipeptide 10 mM with 10 μM Sitagliptin phosphate
[2] = Experiment 1, cyclic dipeptide 10 mM with 10 μM Sitagliptin phosphate
[3] = Experiment 2, cyclic dipeptide 10 mM with 10 μM Sitagliptin phosphate
[4] = Experiment 3, cyclic dipeptide 10 mM with 10 μM Sitagliptin phosphate
[5] = Experiment 4, cyclic dipeptide 10 mM with 10 μM Sitagliptin phosphate

Compound | Significant difference (p < 0.05) vs control group, amount of active GLP-1 secreted (Experiment 3, 10 mM) | Amount of active GLP-1 secreted (relative value to control group as 100), Average value [4] | further results
O=C1NCC(=O)N2CCCC12 (stereo not shown) [compound 4] | – | – | Significant difference (p < 0.05) vs control group, amount of active GLP-1 secreted (Experiment 5, 10 mM): Yes; Amount of active GLP-1 secreted (relative value to control group as 100), Average value [1]: 157
CC(C)CC1NC(=O)CNC1=O (stereo not shown) [compound 21] | – | – | Significant difference (p < 0.05) vs control group, amount of active GLP-1 secreted (Experiment 5, 10 mM): No; Amount of active GLP-1 secreted (relative value to control group as 100), Average value [1]: 131
O=C(O)CCC1NC(=O)CNC1=O (stereo not shown) [compound 24] | – | – | Significant difference (p < 0.05) vs control group, amount of active GLP-1 secreted (Experiment 5, 10 mM): No; Amount of active GLP-1 secreted (relative value to control group as 100), Average value [1]: 89
O=C1CNC(=O)C(Cc2c[nH]cn2)N1 (stereo not shown) [compound 27] | – | – | Significant difference (p < 0.05) vs control group, amount of active GLP-1 secreted (Experiment 5, 10 mM): No; Amount of active GLP-1 secreted (relative value to control group as 100), Average value [1]: 82
O=C(O)CC1NC(=O)CNC1=O (stereo not shown) [compound 32] | – | – | Significant difference (p < 0.05) vs control group, amount of active GLP-1 secreted (Experiment 5, 10 mM): Yes; Amount of active GLP-1 secreted (relative value to control group as 100), Average value [1]: 12
NC(=O)CCC1NC(=O)CNC1=O (stereo not shown) [compound 36] | – | – | Significant difference (p < 0.05) vs control group, amount of active GLP-1 secreted (Experiment 5, 10 mM): No; Amount of active GLP-1 secreted (relative value to control group as 100), Average value [1]: 75
NCCCC[C@@H]1NC(=O)[C@H](CCCCN)NC1=O [compound 40] | – | – | Significant difference (p < 0.05) vs control group, amount of active GLP-1 secreted (Experiment 1, 10 mM): No; Amount of active GLP-1 secreted (relative value to control group as 100), Average value [2]: 164
O=C(O)CC[C@@H]1NC(=O)[C@@H]2CCCN2C1=O [compound 45] | – | – | Significant difference (p < 0.05) vs control group, amount of active GLP-1 secreted (Experiment 1, 10 mM): No; Amount of active GLP-1 secreted (relative value to control group as 100), Average value [2]: 145
O=C1N[C@@H](CO)C(=O)N2CCC[C@@H]12 [compound 46] | – | – | Significant difference (p < 0.05) vs control group, amount of active GLP-1 secreted (Experiment 2, 10 mM): No; Amount of active GLP-1 secreted (relative value to control group as 100), Average value [3]: 139
NC(=O)CC[C@@H]1NC(=O)[C@H](Cc2ccccc2)NC1=O [compound 65] | – | – | Significant difference (p < 0.05) vs control group, amount of active GLP-1 secreted (Experiment 2, 10 mM): Yes; Amount of active GLP-1 secreted (relative value to control group as 100), Average value [3]: 227
CC(C)C[C@@H]1NC(=O)[C@H](CCCCN)NC1=O [compound 68] | – | – | Significant difference (p < 0.05) vs control group, amount of active GLP-1 secreted (Experiment 2, 10 mM): No; Amount of active GLP-1 secreted (relative value to control group as 100), Average value [3]: 208
O=C1N[C@@H](Cc2c[nH]c3ccccc23)C(=O)N[C@H]1CO [compound 78] | – | – | Significant difference (p < 0.05) vs control group, amount of active GLP-1 secreted (Experiment 2, 10 mM): No; Amount of active GLP-1 secreted (relative value to control group as 100), Average value [3]: 119
NCCCC[C@@H]1NC(=O)CNC1=O [compound 96] | Yes | 133 | –
NCCCCC1NC(=O)C(CCC(=O)O)NC1=O (stereo not shown) [compound 97] | No | 66 | –
NCCCCC1NC(=O)C(CO)NC1=O (stereo not shown) [compound 98] | Yes | 71 | –
CC(C)C1NC(=O)C(CCCCN)NC1=O (stereo not shown) [compound 99] | Yes | 532 | –
NCCCCC1NC(=O)C(CC(N)=O)NC1=O (stereo not shown) [compound 101] | Yes | 250 | –
NCCCCC1NC(=O)C(CCC(N)=O)NC1=O (stereo not shown) [compound 102] | No | 112 | –
NC(=O)CC1NC(=O)C(Cc2cnc[nH]2)NC1=O (stereo not shown) [compound 111] | Yes | 341 | –
N=C(N)NCCCC1NC(=O)C(Cc2cnc[nH]2)NC1=O (stereo not shown) [compound 112] | No | 106 | –

Compound | Significant difference (p < 0.05) vs control group, amount of active GLP-1 secreted (Experiment 3, 10 mM) | Amount of active GLP-1 secreted (relative value to control group as 100), Average value [4] | further results
CC1NC(=O)C(CCC(=O)O)NC1=O (stereo not shown) [compound 113] | No | 157 | –
N=C(N)NCCCC1NC(=O)CNC1=O (stereo not shown) [compound 117] | No | 98 | –
CC1NC(=O)C(CC(N)=O)NC1=O (stereo not shown) [compound 124] | No | 116 | –
NC(=O)CCC1NC(=O)CNC1=O (stereo not shown) [compound 126] | Yes | 210 | –
NC(=O)CC1NC(=O)C(CCC(=O)O)NC1=O (stereo not shown) [compound 129] | No | 118 | –
NC(=O)CCC1NC(=O)C(CCC(=O)O)NC1=O (stereo not shown) [compound 130] | No | 120 | –
NC(=O)CCC1NC(=O)C(CO)NC1=O (stereo not shown) [compound 136] | No | 251 | –
CC1NC(=O)C(CC(=O)O)NC1=O (stereo not shown) [compound 153] | No | 94 | –
O=C1CNC(=O)C(CO)N1 (stereo not shown) [compound 154] | No | 116 | –
N=C(N)NCCCC1NC(=O)C(CO)NC1=O (stereo not shown) [compound 159] | Yes | 135 | –
CC(O)C1NC(=O)C(CC(=O)O)NC1=O (stereo not shown) [compound 165] | No | 140 | –
CC(O)C1NC(=O)C(CC(N)=O)NC1=O (stereo not shown) [compound 166] | No | 149 | –
CC(O)C1NC(=O)C(CCC(N)=O)NC1=O (stereo not shown) [compound 167] | No | 156 | –
CC(O)C1NC(=O)C(CCCNC(=N)N)NC1=O (stereo not shown) [compound 168] | No | 142 | –
NC(=O)CC1NC(=O)C(CC(=O)O)NC1=O (stereo not shown) [compound 170] | No | 125 | –
CSCCC1NC(=O)C(CCC(N)=O)NC1=O (stereo not shown) [compound 186] | – | – | Significant difference (p < 0.05) vs control group, amount of active GLP-1 secreted (Experiment 4, 10 mM): Yes; Amount of active GLP-1 secreted (relative value to control group as 100), Average value [5]: 191
N=C(N)NCCCC1NC(=O)C(Cc2c[nH]c3ccccc23)NC1=O (stereo not shown) [compound 189] | – | – | Significant difference (p < 0.05) vs control group, amount of active GLP-1 secreted (Experiment 4, 10 mM): Yes; Amount of active GLP-1 secreted (relative value to control group as 100), Average value [5]: 314
O=C(O)CCC1NC(=O)C(CO)NC1=O (stereo not shown) [compound 192] | – | – | Amount of active GLP-1 secreted (relative value to control group as 100), Average value [5]: 993
N=C(N)NCCCC1NC(=O)C(CC(N)=O)NC1=O (stereo not shown) [compound 197] | – | – | Significant difference (p < 0.05) vs control group, amount of active GLP-1 secreted (Experiment 4, 10 mM): Yes; Amount of active GLP-1 secreted (relative value to control group as 100), Average value [5]: 359
N=C(N)NCCCC1NC(=O)C(CCCNC(=N)N)NC1=O (stereo not shown) [compound 212] | – | – | Significant difference (p < 0.05) vs control group, amount of active GLP-1 secreted (Experiment 4, 10 mM): Yes; Amount of active GLP-1 secreted (relative value to control group as 100), Average value [5]: 1050
